Consider five compounds from patent US11987648B2, “Cyclohexapeptides as selective somatostatin SST5 receptor agonists” (Heptares Therapeutics Limited, priority 2018, dated 2024).

Read-outs that look alike come from different tables or passages of the source. *1 amine or outer side, *2 acyl side, *3 side chain or, on linkers, in order; H or OH if unused. Where a SMILES comes first, the peptide text is derived from it. Side-chain parts run from the residue outwards. [ ]: non-standard residue; d: D form. The star is where a group is joined. Ala(piperidin-4-yl) = O=C([C@H](CC1CCN([*:3])CC1)N[*:1])[*:2]; Ala(piperazin-1-yl) = N[C@@H](CN1CCNCC1)C(=O)O; X7 = NCCOC(=O)N1CCN([*:1])[C@H](C(=O)[*:2])C1; Ethylenediamine = C(CN[*:2])N[*:1]; Hyp = O=C(O)[C@@H]1C[C@@H](O)CN1; Pip(4-aza) = O=C(O)[C@@H]1CNCCN1; hPhe = N[C@@H](CCc1ccccc1)C(=O)O; Tic = O=C(O)[C@@H]1Cc2ccccc2CN1; Phg = N[C@H](C(=O)O)c1ccccc1; X3 = CN[C@H]1CCN(*)C1; CO = O=C([*:1])[*:2]; Bn = c1ccc(C*)cc1

In one experiment the target is SST2 (Homo sapiens, UniProt P30874). Put plainly: Hit Hunter cAMP XS+ assay, SST2 activation via Gi (reduction of forskolin-stimulated cAMP). It counts as cell-based. The settings on record: for Emax: read-out: SST2 (EMax). Put shortly: (§1)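 Cells (10,000/well) incubated 30 min at 37 °C with compound under EC80 forskolin ([…] for SST2, 15 μM for SST5). cAMP reduction was detected by enzyme-fragment complementation chemiluminescence after 60 min and 180 min room-temperature reagent steps. Potency and efficacy were both measured.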

In the next experiment the target is SST5 (Homo sapiens, UniProt P35346). Put plainly: Hit Hunter cAMP XS+ assay, SST5 activation via Gi (reduction of forskolin-stimulated cAMP). The settings on record: for Emax: read-out: SST5 (EMax); for SST5/2 Selectivity: selectivity for SST5 over SST2. It counts as cell-based. Put shortly: as §1
For experiment [1] the following is noted: Phase II trial, hepatocellular carcinoma; cited from earlier work.
The conditions of experiment [2]: Phase I trial, pancreatic cancer, combination treatment with gemcitabine; cited from earlier work.
The mark [3] stands for this setting: reduction of forskolin-stimulated cAMP, 4-parameter logistic fit, read-out: SST2 pEC50 (converted).
Where [4] appears, read: reduction of forskolin-stimulated cAMP, 4-parameter logistic fit, read-out: SST5 pEC50 (converted).
Where [5] appears, read: efficacy normalised to somatostatin 28 (basal 0%, 100% = signal with 50 nM somatostatin 28).

Chain of SST5 (P35346 whole entry): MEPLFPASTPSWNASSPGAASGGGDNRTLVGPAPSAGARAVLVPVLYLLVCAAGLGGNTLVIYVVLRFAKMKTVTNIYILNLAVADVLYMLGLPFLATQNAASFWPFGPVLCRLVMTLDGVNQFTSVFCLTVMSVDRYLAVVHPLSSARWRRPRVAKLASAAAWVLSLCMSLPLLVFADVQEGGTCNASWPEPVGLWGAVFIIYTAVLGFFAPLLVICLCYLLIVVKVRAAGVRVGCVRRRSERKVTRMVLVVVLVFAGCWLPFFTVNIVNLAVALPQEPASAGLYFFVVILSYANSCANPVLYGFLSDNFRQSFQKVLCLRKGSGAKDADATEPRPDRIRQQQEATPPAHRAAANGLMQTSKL
Chain of SST2 (P30874 whole entry, the tested form may be a part): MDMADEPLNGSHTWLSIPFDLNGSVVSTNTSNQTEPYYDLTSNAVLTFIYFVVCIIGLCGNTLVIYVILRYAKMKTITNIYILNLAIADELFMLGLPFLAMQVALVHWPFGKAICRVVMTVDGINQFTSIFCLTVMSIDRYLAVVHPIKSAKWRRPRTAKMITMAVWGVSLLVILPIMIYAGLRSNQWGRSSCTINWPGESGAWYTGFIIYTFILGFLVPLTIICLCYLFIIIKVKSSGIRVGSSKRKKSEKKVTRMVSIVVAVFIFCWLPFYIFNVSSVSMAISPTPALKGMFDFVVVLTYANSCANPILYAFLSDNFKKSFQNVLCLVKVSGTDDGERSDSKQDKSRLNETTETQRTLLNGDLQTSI

For `NCCOC(=O)N1CCN2C(=O)[C@@H]3Cc4ccccc4CN3C(=O)[C@H](Cc3ccc(OCc4ccccc4)cc3)NC(=O)[C@H](CN3CCNCC3)NC(=O)[C@@H](Cc3c[nH]c4ccccc34)NC(=O)[C@H](CCc3ccccc3)NC(=O)[C@@H]2C1` [Example 72] (cyclo([Tic][X7][hPhe][dW][Ala(piperazin-1-yl)]Y(Bn))), the Emax came to 14% at SST2 and 101% on SST5. Also, the EC50 on SST2 (setting [3]) is above 10000 nM; on SST5 (setting [4]), 6.31 nM. On SST5, the “SST5/2 Selectivity” value came out at 1621.3.
Regarding `O=C1N[C@@H](Cc2ccc(OCc3ccccc3)cc2)C(=O)N2Cc3ccccc3C[C@H]2C(=O)N2CCNC[C@H]2C(=O)N[C@@H](CCc2ccccc2)C(=O)N[C@H](Cc2c[nH]c3ccccc23)C(=O)N[C@H]1CC1CCNCC1` [Example 73] (cyclo([Tic][Pip(4-aza)][hPhe][dW][Ala(piperidin-4-yl)]Y(Bn))), the figures for the Emax at SST2 and at SST5 were 99.2% and 94.9%, respectively. Moreover, the EC50 at SST2 (setting [3]) was 398 nM; on SST5 (setting [4]), 0.631 nM. Moreover, the “SST5/2 Selectivity” value on SST5 is 566.7.
On to `CN[C@H]1CCN(C(=O)O[C@@H]2C[C@H]3C(=O)N[C@@H](CCc4ccccc4)C(=O)N[C@H](Cc4c[nH]c5ccccc45)C(=O)N[C@@H](CC4CCNCC4)C(=O)N[C@@H](Cc4ccc(OCc5ccccc5)cc4)C(=O)N4Cc5ccccc5C[C@H]4C(=O)N3C2)C1` [Example 78] (cyclo([Hyp]([CO-X3])[hPhe][dW][Ala(piperidin-4-yl)]Y(Bn)[Tic])), for which the Emax worked out at 76.2% at SST2 and 106% on SST5. For the same compound, the EC50 at SST2 (setting [3]) is 3160 nM; at SST5 (setting [4]), 1.26 nM. In addition, the “SST5/2 Selectivity” value on SST5 came out at 2726.7.
For the compound `NCCCC[C@@H]1NC(=O)[C@@H](Cc2c[nH]c3ccccc23)NC(=O)[C@H](c2ccccc2)NC(=O)[C@@H]2C[C@@H](OC(=O)NCCN)CN2C(=O)[C@H](Cc2ccccc2)NC(=O)[C@H](Cc2ccc(OCc3ccccc3)cc2)NC1=O` [pasireotide, reference compound] (cyclo([Hyp]([CO-Ethylenediamine])[Phg][dW]KY(Bn)F)), in experiment [1], the “patients with limitation of disease progression” value is listed as 45%. For the same compound, the disease control rate in experiment [2] is on record as 68%. Moreover, at SST2, the EC50 was 1 nM and the Emax was 100%. Further, at SST5, the EC50 was 0.251 nM, the Emax worked out at 102% and the “SST5/2 Selectivity” value was determined as 3.8.
For somatostatin 28 [reference compound], the “SST2 (EMax)” value at SST2 (setting [5]) was 100.4%. The “SST5 (EMax)” value on SST5 (setting [5]) turned out to be 101.0%. Also, on SST5, the “SST5/2 Selectivity” value was 4.6.
